# Reference: patent publication US20020165188A1, “Methods for inhibition of tumorigenic properties of melanoma cells” (priority 1999, published 2002)
# Entries after “also recorded” stand apart in the source; their conditions may differ.
# B1: Plakoglobin (other, human, UniProt P14923 1-745, looked up)
# chain: MEVMNLMEQPIKVTEWQQTYTYDSGIHSGANTCVPSVSSKGIMEEDEACGRQYTLKKTTTYTQGVPPSQGDLEYQMSTTARAKRVREAMCPGVSGEDSSLLLATQVEGQATNLQRLAEPSQLLKSAIVHLINYQDDAELATRALPELTKLLNDEDPVVVTKAAMIVNQLSKKEASRRALMGSPQLVAAVVRTMQNTSDLDTARCTTSILHNLSHHREGLLAIFKSGGIPALVRMLSSPVESVLFYAITTLHNLLLYQEGAKMAVRLADGLQKMVPLLNKNNPKFLAITTDCLQLLAYGNQESKLIILANGGPQALVQIMRNYSYEKLLWTTSRVLKVLSVCPSNKPAIVEAGGMQALGKHLTSNSPRLVQNCLWTLRNLSDVATKQEGLESVLKILVNQLSVDDVNVLTCATGTLSNLTCNNSKNKTLVTQNSGVEALIHAILRAGDKDDITEPAVCALRHLTSRHPEAEMAQNSVRLNYGIPAIVKLLNQPNQWPLVKATIGLIRNLALCPANHAPLQEAAVIPRLVQLLVKAHQDAQRHVAAGTQQPYTDGVRMEEIVEGCTGALHILARDPMNRMEIFRLNTIPLFVQLLYSSVENIQRVAAGVLCELAQDKEAADAIDAEGASAPLMELLHSRNEGTATYAAAVLFRISEDKNPDYRKRVSVELTNSLFKHDPAAWEAAQSMIPINEPYGDDMDATYRPMYSSDVPLDPLEMHMDMDGDYPIDTYSDGLRPPYPTADHMLA
# notes: Endogenous protein immunoprecipitated from detergent lysates of cultured human cells; also called gamma-catenin; y-catenin
# B2: Desmoglein 1 (other, human, UniProt Q02413 50-1049, looked up)
# chain: EWIKFAAACREGEDNSKRNPIAKIHSDCAANQQVTYRISGVGIDQPPYGIFVINQKTGEINITSIVDREVTPFFIIYCRALNSMGQDLERPLELRVRVLDINDNPPVFSMATFAGQIEENSNANTLVMILNATDADEPNNLNSKIAFKIIRQEPSDSPMFIINRNTGEIRTMNNFLDREQYGQYALAVRGSDRDGGADGMSAECECNIKILDVNDNIPYMEQSSYTIEIQENTLNSNLLEIRVIDLDEEFSANWMAVIFFISGNEGNWFEIEMNERTNVGILKVVKPLDYEAMQSLQLSIGVRNKAEFHHSIMSQYKLKASAISVTVLNVIEGPVFRPGSKTYVVTGNMGSNDKVGDFVATDLDTGRPSTTVRYVMGNNPADLLAVDSRTGKLTLKNKVTKEQYNMLGGKYQGTILSIDDNLQRTCTGTININIQSFGNDDRTNTEPNTKITTNTGRQESTSSTNYDTSTTSTDSSQVYSSEPGNGAKDLLSDNVHFGPAGIGLLIMGFLVLGLVPFLMICCDCGGAPRSAAGFEPVPECSDGAIHSWAVEGPQPEPRDITTVIPQIPPDNANIIECIDNSGVYTNEYGGREMQDLGGGERMTGFELTEGVKTSGMPEICQEYSGTLRRNSMRECREGGLNMNFMESYFCQKAYAYADEDEGRPSNDCLLIYDIEGVGSPAGSVGCCSFIGEDLDDSFLDTLGPKFKKLADISLGKESYPDLDPSWPPQSTEPVCLPQETEPVVSGHPPISPHFGTTTVISESTYPSGPGVLHPKPILDPLGYGNVTVTESYTTSDTLKPSVHVHDNRPASNVVVTERVVGPISGADLHGMLEMPDLRDGSNVIVTERVIAPSSSLPTSLTIHHPRESSNVVVTERVIQPTSGMIGSLSMHPELANAHNVIVTERVVSGAGVTGISGTTGISGGIGSSGLVGTSMGAGSGALSGAGISGGGIGLSSLGGTASIGHMRSSSDHHFNQTIGSASPSTARSRITKYSTVQYSK
# notes: Endogenous protein immunoprecipitated from detergent lysates of cultured human cells; also called Dsg1
# Legend:
# Desmoglein 1 = Desmoglein 1 expression in melanocytic cells under HGF stimulation (immunoblot); assay type: cell-based, human
# Description: (§1) Optimal viral concentrations for infection were determined as the amounts of virus required to yield the desired levels of gene expression without apparent alteration in cellular phenotype or toxicity. Subconfluent melanocytes and melanoma cells were infected with adenoviruses for 2-4 hours at 37° C. in protein-free W489 medium. Viral suspension was then replaced with culture medium. Because dominant negative Desmoglein-3 vector AxCALNLDsg3ΔEC and E-cadherin vector AxCALNLEcadΔEC were made using the Cre-loxP system (Hanakawa et al., 2000), AxCANCre was co-infected with AxCALNLDsg3ΔEC or AxCALNLEcacLΔEC at a ratio of 1:1, respectively. Cells were allowed to recover for at least 24 hours before assay.
# (§2) For immunoblotting, cells were washed with PBS and harvested in RIPA buffer. Total protein concentrations were measured using the bicinchoninic acid (BCA) assay (Pierce Chemical Co. Rockford, Ill.). Samples were loaded at 15 μg/lane and separated on 8% SDS polyacrylamide gels and transferred to polyvinylidene difluoride (PVDF) membranes and probed with specific primary antibodies. To detect the signal, peroxidase-conjugated secondary antibody was added, followed by exposure using enhanced chemiluminescence (ECL) (Amersham, Arlington Heights, Ill.). Some of the immunoblots were quantified using NIH Image (version 1.61).
# c-Met = c-Met phosphorylation by immunoprecipitation and anti-phosphotyrosine blot; assay type: cell-based, human
# Description: To investigate the status of c-Met phosphorylation, subconfluent melanoma cells were infected with LacZ or Ad.CMV.rhHGF (20 pfu/cell) and cultured for 48 hours. In neutralizing antibody-treated group, HGF neutralizing antibody (final concentration 10 ug/ml) was added to serum-free medium 24 hours before lysis. Cells were washed with cold PBS containing 1 mM Na3VO4, and rapidly scraped into 200 μl PBS containing 1% Triton X-100, 1% NP4O, 1 mM Na3VO4, 1 mM phenylmethyl sulfonyl fluoride (PMSF), and protease inhibitors (1 μg/ml leupeptin, aprotinin and pepstatin). After incubation on ice for 15 minutes, the extracts were separated by centrifugation at 13,000× g for 10 minutes. The supernatants were used for immunoprecipitation using an anti-c-Met antibody (5 μg) for 1 hour at 4° C. with shaking. Protein A-G sepharose CL-4B beads (Pharmacia Biotech, Uppsala, Sweden) were then added and incubated for 12 hours. Samples were washed four times with lysis buffer, boiled in Laemmli buffer containing (3-mercaptoethanol, and subjected to electrophoresis on an 8% SDS-polyacrylamide gel. Separated proteins were transferred onto PVDF membrane and detected by anti-phosphotyrosine primary antibody (PY2O) and peroxidase-conjugated secondary antibody. Signals were detected using ECL.
# E-cadherin = E-cadherin expression in melanocytic cells under HGF stimulation (immunoblot); assay type: cell-based, human
# Description: as §1, §2
# [1] = tested on: melanocytes or melanoma cells; assay: Growth of melanocytes and melanoma cells after HGF treatment; assay type: cell-based, human; settings: HGF treatment alone
# IGF-R1 [2] = target: T1, IGF-R1 (human, UniProt P08069 31-1367, limits assumed); assay: co-immunoprecipitation with anti-Plakoglobin antibody, blot probed with anti-IGF-R1 antibody
# T1 construct: Specificity control of the co-immunoprecipitation; also called IF-R1
# T1 sequence (P08069 31-1367 limits assumed): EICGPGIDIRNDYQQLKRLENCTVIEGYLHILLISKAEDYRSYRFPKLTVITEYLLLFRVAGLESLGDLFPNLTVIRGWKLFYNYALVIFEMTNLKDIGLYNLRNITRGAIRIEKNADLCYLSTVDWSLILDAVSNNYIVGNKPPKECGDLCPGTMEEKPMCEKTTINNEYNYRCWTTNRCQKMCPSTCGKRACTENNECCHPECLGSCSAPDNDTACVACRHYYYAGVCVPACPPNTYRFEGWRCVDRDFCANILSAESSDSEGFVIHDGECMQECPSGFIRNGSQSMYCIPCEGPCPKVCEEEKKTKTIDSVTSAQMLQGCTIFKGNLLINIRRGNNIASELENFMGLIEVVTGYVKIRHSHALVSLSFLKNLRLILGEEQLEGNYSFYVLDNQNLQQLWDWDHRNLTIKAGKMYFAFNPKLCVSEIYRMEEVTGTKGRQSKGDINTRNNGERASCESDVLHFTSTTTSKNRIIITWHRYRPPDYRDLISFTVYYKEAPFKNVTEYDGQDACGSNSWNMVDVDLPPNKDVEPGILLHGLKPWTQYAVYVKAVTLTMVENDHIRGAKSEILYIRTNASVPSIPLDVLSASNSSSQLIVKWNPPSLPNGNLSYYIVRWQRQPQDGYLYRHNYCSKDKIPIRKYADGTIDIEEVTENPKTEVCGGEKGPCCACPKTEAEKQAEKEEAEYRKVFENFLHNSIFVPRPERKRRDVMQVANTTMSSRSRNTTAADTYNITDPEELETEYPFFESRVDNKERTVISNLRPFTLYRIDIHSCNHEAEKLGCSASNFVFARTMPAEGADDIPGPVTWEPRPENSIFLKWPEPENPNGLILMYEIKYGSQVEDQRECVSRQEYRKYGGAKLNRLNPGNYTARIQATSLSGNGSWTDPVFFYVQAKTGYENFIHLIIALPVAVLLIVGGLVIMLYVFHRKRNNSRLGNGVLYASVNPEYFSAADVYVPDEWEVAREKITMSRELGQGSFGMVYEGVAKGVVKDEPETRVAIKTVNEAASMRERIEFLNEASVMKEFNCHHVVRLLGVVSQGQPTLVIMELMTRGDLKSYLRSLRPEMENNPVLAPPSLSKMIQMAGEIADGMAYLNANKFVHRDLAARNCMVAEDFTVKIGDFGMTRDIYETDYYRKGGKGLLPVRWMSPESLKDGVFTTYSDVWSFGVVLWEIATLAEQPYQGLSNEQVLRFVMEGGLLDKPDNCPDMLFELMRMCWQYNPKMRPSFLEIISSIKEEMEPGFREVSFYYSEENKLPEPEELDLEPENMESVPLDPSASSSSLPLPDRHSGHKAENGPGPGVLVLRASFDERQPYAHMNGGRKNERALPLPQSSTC
# Source text: (§3) Desmoglein 1, E-cadherin, c-Met and Plakoglobin can be co-immunoprecipitated from melanocytic cells. […] To test the possibility that physical interactions underlie the crosstalk between HGF/c-Met signaling and adhesion receptor regulation, the complex formation was investigated by immunoprecipitation analyses. Desmoglein 1, Plakoglobin, c-Met and E-cadherin were detected in the complexes pulled down by either anti-Desmoglein 1 antibody or anti-Plakoglobin antibody in keratinocytes and melanocytes. WM278 expresses no E-cadherin, but the other components were also found to form complexes. The specificity of the interaction was confirmed by probing the same blots with anti-IF-R1 antibody. IF-R1 was not detected in the immunoprecipitants but IF-R1 was detectable in whole cell extract.
# (§4) To investigate c-Met Desmoglein lE-cadherin complexes, cells cultured in their optimal media were lysed in 10 mM Tris-HCl (pH7.4), 1% NP-40, 1% Triton X-100, 2mM CaCl₂, 150 mM NaCl, 1 mM PMSF and protease inhibitors (1 μg/ml leupeptin, aprotinin and pepstatin). The extracts were immunoprecipitated using either anti-Desmoglein 1 or anti-Plakoglobin antibody in the same condition described above. Immunoprecipitants were separated on gels, transferred onto PVDF membrane and probed with anti-Desmoglein 1, -Plakoglobin, -c-Met and -E-cadherin antibodies.
# IGF-R1 [3] = target: T1, IGF-R1; assay: co-immunoprecipitation with anti-Desmoglein 1 antibody, blot probed with anti-IGF-R1 antibody
# Source text: as §3, §4
# [4] = continuous/prolonged HGF stimulation (three days; Ad.CMV.rhHGF 20 pfu/cell), melanocytes, WM164 and WM35
# [5] = melanocytes, one pulse of recombinant protein 50 ng/ml, five and twelve hour intervals
# [6] = Ad.CMV.rhHGF transduced melanocytes, antibody 10 μg/ml, wortmannin 30 μM, PD98059 10 μM and 50 μM
# [7] = autocrine activation by HGF-expressing adenovirus, melanocytes, WM164, WM35
molecule,measurement,setting,value
HGF: multi-functional cytokine acting through tyrosine kinase receptor c-met; recombinant human HGF from R&D Systems,expression levels of Desmoglein 1,Desmoglein 1; [4],greatly reduced
same,Desmoglein expression after pulse HGF,Desmoglein 1; [5],did not alter; also recorded: did not cause downregulation
same,levels of c-Met,c-Met; after HGF treatment,did not change
same,tyrosine-phosphorylated c-Met,c-Met; melanocytes and melanoma cells treated with additional HGF,dramatic increase
same,expression levels of E-cadherin,E-cadherin; [4],greatly reduced
same,E-cadherin expression after pulse HGF,E-cadherin; [5],did not alter; also recorded: did not cause downregulation
same,growth stimulation,[1],No significant growth stimulation
"COc1cccc(-c2cc(=O)c3ccccc3o2)c1N [PD98059, reference compound]",blocking of HGF-induced downregulation of Desmoglein 1,Desmoglein 1; [6],less effective
same,blocking of downregulation of Desmoglein 1 (summary statement),Desmoglein 1; [7],partially blocked
same,blocking of HGF-induced downregulation of E-cadherin,E-cadherin; [6],less effective
same,blocking of downregulation of E-cadherin (summary statement),E-cadherin; [7],partially blocked
B1,binding result,IGF-R1 [2],no binding
B2,binding result,IGF-R1 [3],no binding
